According to PubChem BioAssay AID1259408 (Genetic Toxicology Data Bank (GENE-TOX), 2018):
The source made the active and inactive calls. How the calls were made is not given here.

System: GENE-TOX genotoxicity assays, various organisms and cells
Assay: GENE-TOX mutagenicity studies
Details: for call: Assay Type: In vivo carcinogenicity studies
Description: GENE-TOX provides genetic toxicology (mutagenicity) test data from expert peer review of open scientific literature for more than 3,000 chemicals from the United States Environmental Protection Agency (EPA). GENE-TOX was established to select assay systems for evaluation, review data in the scientific literature, and recommend proper testing protocols and evaluation procedures for these systems.
GENE-TOX covers the years 1991 - 1998. It is no longer updated.
This is an archive assay for GENE-TOX mutagenicity studies.

[1] = Species/Cell Type: Chinese hamster lung (V79) cells, Assay Type: Forward gene mutation at the HPRT or ouabain locus, Assay Code: V79+, Evaluation Type: Evaluation A (Pre-1980)
[2] = Species/Cell Type: Nonhuman, Assay Code: CCG+, Evaluation Type: Evaluation A (Pre-1980)
[3] = Species/Cell Type: Salmonella typhimurium (one or more of the five standard strains: TA98, TA100, TA1535, TA1537, and TA1538), Assay Type: Histidine reverse gene mutation, Ames assay, Assay Code: SAL+*, Activation: With metabolic activation, Evaluation Type: Evaluation A (Pre-1980)
[4] = Species/Cell Type: Syrian hamster embryo (SA7/SHE) cells, Assay Type: Cell transformation, viral enhanced, Assay Code: CT7+, Evaluation Type: Evaluation A (Pre-1980)
[5] = Species/Cell Type: Drosophila melanogaster, Assay Type: Sex-linked recessive lethal gene mutation, Assay Code: SRL+, Evaluation Type: Evaluation A (Pre-1980)
[6] = Species/Cell Type: Drosophila melanogaster, Assay Type: Sex-linked recessive lethal gene mutation, Assay Code: SRLT, Evaluation Type: Evaluation A (Pre-1980)
[7] = Species/Cell Type: Salmonella typhimurium (one or more of the five standard strains: TA98, TA100, TA1535, TA1537, and TA1538), Assay Type: Histidine reverse gene mutation, Ames assay, Assay Code: SALT, Evaluation Type: Evaluation A (Pre-1980)
[8] = Species/Cell Type: Nonhuman, Assay Type: Sister-chromatid exchange (SCE) in vitro, Assay Code: SC2+D, Dose Response: With dose response, Evaluation Type: Evaluation B (Post-1980)
[9] = Species/Cell Type: Salmonella typhimurium (one or more of the five standard strains: TA98, TA100, TA1535, TA1537, and TA1538), Assay Type: Histidine reverse gene mutation, Ames assay, Assay Code: SAL+, Evaluation Type: Evaluation A (Pre-1980)
[10] = Species/Cell Type: Salmonella typhimurium (one or more of the five standard strains: TA98, TA100, TA1535, TA1537, and TA1538), Assay Type: Histidine reverse gene mutation, Ames assay, Assay Code: SAL-, Evaluation Type: Evaluation A (Pre-1980)
[11] = Species/Cell Type: Human, Assay Type: Sister-chromatid exchange (SCE) in vitro, Assay Code: SC1+, Evaluation Type: Evaluation B (Post-1980)
[12] = Species/Cell Type: Bacillus subtilis (H17 vs M45), Assay Type: Rec-assay, spot test, DNA effects (bacterial DNA repair), Assay Code: REWT, Evaluation Type: Evaluation A (Pre-1980)
[13] = Species/Cell Type: Escherichia coli WP2 UVRA, Assay Type: Tryptophan reverse gene mutation, Assay Code: WPU-*, Activation: With metabolic activation, Evaluation Type: Evaluation A (Pre-1980)
[14] = Species/Cell Type: Escherichia coli polA (W3119 vs P3478), Assay Type: Rec-assay, DNA effects (bacterial DNA repair), Assay Code: RE1T, Evaluation Type: Evaluation A (Pre-1980)
[15] = Species/Cell Type: Human diploid fibroblasts, Assay Type: Unscheduled DNA synthesis (UDS) in vitro, DNA effects, Assay Code: UDH-, Evaluation Type: Evaluation A (Pre-1980)
[16] = Species/Cell Type: Nonhuman, Assay Code: CCG-, Evaluation Type: Evaluation A (Pre-1980)
[17] = Species/Cell Type: Saccharomyces cerevisiae, Assay Type: Mitotic recombination or gene conversion, Assay Code: YEH-, Evaluation Type: Evaluation A (Pre-1980)
[18] = Species/Cell Type: Human, Assay Type: Sister-chromatid exchange (SCE) in vitro, Assay Code: SC1+D, Dose Response: With dose response, Evaluation Type: Evaluation B (Post-1980)

Compound: CCCN(CCC)N=O
- mutagenic call [1]: active; positive
- mutagenic call (Species/Cell Type: Human diploid fibroblasts, Assay Type: Unscheduled DNA synthesis (UDS) in vitro, DNA effects, Assay Code: UDHT, Evaluation Type: Evaluation A (Pre-1980)): no conclusion
- call [2]: active; positive
- mutagenic call (Species/Cell Type: Nonhuman, Assay Type: Sister-chromatid exchange (SCE) in vivo, Assay Code: SC3+, Evaluation Type: Evaluation B (Post-1980)): active; positive
- mutagenic call [3]: active; positive
- mutagenic call [4]: active; positive

Compound: CC1=CC(=C(c2ccc(N)cc2)c2ccc(N)cc2)C=CC1=N (tested in a mixture with another compound)
- mutagenic call (Species/Cell Type: Saccharomyces cerevisiae, Assay Type: Forward gene mutation, Assay Code: YEFT, Evaluation Type: Evaluation A (Pre-1980)): no conclusion

Compound: [Cl][Ag]
- mutagenic call (Species/Cell Type: Bacillus subtilis (H17 vs M45), Assay Type: Rec-assay, spot test, DNA effects (bacterial DNA repair), Assay Code: REW-, Evaluation Type: Evaluation A (Pre-1980)): inactive; negative

Compound: CC1CCCN(N=O)C1 (configuration not stated)
- mutagenic call [5]: active; positive
- call (Species/Cell Type: Nonhuman, Assay Code: CCG+L, Evaluation Type: Evaluation A (Pre-1980)): active; positive
- mutagenic call (Species/Cell Type: Saccharomyces cerevisiae, Assay Type: Forward gene mutation, Assay Code: YEF+*, Activation: With metabolic activation, Evaluation Type: Evaluation A (Pre-1980)): active; positive
- mutagenic call (Species/Cell Type: Saccharomyces cerevisiae, Assay Type: Reverse gene mutation, Assay Code: YER+*, Activation: With metabolic activation, Evaluation Type: Evaluation A (Pre-1980)): active; positive
- mutagenic call [3]: active; positive

Compound: Cn1c([N+](=O)[O-])cnc1-c1nc2ccccc2n1CCCN1CCOCC1
- mutagenic call [6]: no conclusion
- mutagenic call (Species/Cell Type: Saccharomyces cerevisiae, Assay Type: Mitotic recombination or gene conversion, Assay Code: YEC-, Evaluation Type: Evaluation A (Pre-1980)): inactive; negative

Compound: c1cc2ccc3ccc4ccc5cccc6c(c1)c2c3c4c56
- mutagenic call [7]: no conclusion

Compound: CCCCCCCC(=O)N(C)N=O
- mutagenic call (Species/Cell Type: Saccharomyces cerevisiae, Assay Type: Mitotic recombination or gene conversion, Assay Code: YEH+, Evaluation Type: Evaluation A (Pre-1980)): active; positive

Compound: O=C1CN=C(c2ccccc2)c2cc([N+](=O)[O-])ccc2N1
- mutagenic call (Species/Cell Type: Aspergillus nidulans, Assay Type: Forward gene mutation, Assay Code: ASF+, Evaluation Type: Evaluation A (Pre-1980)): active; positive

Compound: O=C=Nc1ccc2ccccc2c1
- mutagenic call [8]: active; positive

Compound: Cc1cccc2cccnc12
- mutagenic call [3]: active; positive

Compound: c1cc2ccc3ccc(C4CO4)c4ccc(c1)c2c34 (configuration not stated)
- mutagenic call [9]: active; positive

Compound: C=CCN(CC=C)N=O
- mutagenic call [3]: active; positive

Compound: CCC(CC)c1cccc(OC(=O)N(C)N=O)c1
- mutagenic call [9]: active; positive

Compound: COc1cc(CNC(=O)CCCC/C=C/C(C)C)ccc1O
- mutagenic call (Species/Cell Type: Mammalian polychromatic erythrocytes, Assay Type: Micronucleus test, chromosome aberrations, Assay Code: MNT+U, Dose Response: Unconfirmed positive response, Evaluation Type: Evaluation B (Post-1980)): active; positive

Compound: c1ccc2c(c1)Cc1ccccc1-2
- mutagenic call (Species/Cell Type: Nonhuman, Assay Type: Sister-chromatid exchange (SCE) in vivo, Assay Code: SC3T, Evaluation Type: Evaluation B (Post-1980)): no conclusion
- mutagenic call [10]: inactive; negative

Compound: CC(=O)O/C=C/Cc1cccc2c1OCO2
- mutagenic call [7]: no conclusion

Compound: CN(C)c1nc(N(C)C)nc(N(C)C)n1
- mutagenic call [5]: active; positive

Compound: c1ccc2c(c1)Oc1ccccc1O2
- call (Species/Cell Type: Nonhuman, Assay Code: CCG-L, Evaluation Type: Evaluation A (Pre-1980)): inactive; negative

Compound: OCC1=CCN2CC[C@H](O)[C@@H]12
- mutagenic call [6]: no conclusion

Compound: CC(=O)Oc1ccccc1C(=O)O
- mutagenic call (Species/Cell Type: Mammalian polychromatic erythrocytes, Assay Type: Micronucleus test, chromosome aberrations, Assay Code: MNTT, Evaluation Type: Evaluation A (Pre-1980)): no conclusion
- mutagenic call (Species/Cell Type: Mouse, Sex: Male, Assay Type: Sperm morphology, Assay Code: SPI-, Evaluation Type: Evaluation A (Pre-1980)): inactive; negative

Compound: Nc1ccc(-c2ccc(F)cc2)cc1
- mutagenic call (Species/Cell Type: Mouse embryo (AKR/ME) cells, Assay Type: Cell transformation, Assay Code: CTK+, Evaluation Type: Evaluation A (Pre-1980)): active; positive

Compound: [S]=[Mo]=[S]
- mutagenic call [4]: active; positive

Compound: Cc1c2occc2cc2c1oc(=O)c1cnccc12
- mutagenic call [11]: active; positive

Compound: CCOP(=S)(OCC)Oc1cc(C)nc(C(C)C)n1
- mutagenic call [12]: no conclusion
- mutagenic call [13]: inactive; negative
- mutagenic call [14]: no conclusion
- mutagenic call [15]: inactive; negative
- mutagenic call [11]: active; positive
- call [16]: inactive; negative
- mutagenic call (Species/Cell Type: Nonhuman, Assay Type: Sister-chromatid exchange (SCE) in vitro, Assay Code: SC2+, Evaluation Type: Evaluation B (Post-1980)): active; positive
- mutagenic call [17]: inactive; negative
- mutagenic call [10]: inactive; negative

Compound: O=Nc1c([O-])ccc2cc(S(=O)(=O)[O-])ccc12.O=Nc1c([O-])ccc2cc(S(=O)(=O)[O-])ccc12.O=Nc1c([O-])ccc2cc(S(=O)(=O)[O-])ccc12.[Fe+3].[Na+].[Na+].[Na+]
- mutagenic call [12]: no conclusion

Compound: O=C(NOS(=O)(=O)O)c1ccc2ccccc2c1
- mutagenic call [8]: active; positive

Compound: COC([CH2][Hg+])CNC(=O)C1CCC(C)(C(=O)[O-])C1(C)C.O=C([O-])C[S-].[H+].[H+] (configuration not stated)
- mutagenic call (Species/Cell Type: Mammalian oocytes or early embryo, Assay Type: Chromosome aberrations in vivo, Assay Code: CYO-, Evaluation Type: Evaluation A (Pre-1980)): inactive; negative

Compound: Cc1c2ccccc2c(CCl)c2ccc3ccccc3c12
- mutagenic call [9]: active; positive

Compound: CCOC(=O)CC(SP(=S)(OC)OC)C(=O)OCC (configuration not stated)
- mutagenic call [12]: no conclusion
- mutagenic call (Species/Cell Type: Drosophila melanogaster, Assay Type: Sex-linked recessive lethal gene mutation, Assay Code: SRL-, Evaluation Type: Evaluation A (Pre-1980)): inactive; negative
- mutagenic call [13]: inactive; negative
- mutagenic call [14]: no conclusion
- mutagenic call (Species/Cell Type: Hordeum vulgare (barley), Assay Type: Chromosome aberrations, Assay Code: HOC+D, Dose Response: With dose response, Evaluation Type: Evaluation A (Pre-1980)): active; positive
- mutagenic call [15]: inactive; negative
- mutagenic call (Species/Cell Type: Human, Assay Type: Sister-chromatid exchange (SCE) in vitro, Assay Code: SC1+D, Dose Response: With dose response, Evaluation Type: Evaluation A (Pre-1980)): active; positive
- mutagenic call [18]: active; positive
- mutagenic call (Species/Cell Type: Mammalian polychromatic erythrocytes, Assay Type: Micronucleus test, chromosome aberrations, Assay Code: MNT+, Evaluation Type: Evaluation B (Post-1980)): active; positive
- call [16]: inactive; negative
- mutagenic call [8]: active; positive
- mutagenic call [17]: inactive; negative
- mutagenic call [10]: inactive; negative

Compound: C/[N+]([O-])=N/CO
- mutagenic call [1]: active; positive
- mutagenic call [5]: active; positive
- call [2]: active; positive
- mutagenic call (Species/Cell Type: Salmonella typhimurium, Assay Type: Forward and reverse gene mutation, body fluid assay, Assay Code: BFU+, Evaluation Type: Evaluation A (Pre-1980)): active; positive
- mutagenic call (Species/Cell Type: Syrian hamster embryo (SHE) cells, Assay Type: Cell transformation, clonal assay, Assay Code: CTC+, Evaluation Type: Evaluation A (Pre-1980)): active; positive

Compound: OC1c2c(c3cc4ccccc4cc3c3ccccc23)C=C[C@H]1O (some centres not stated)
- mutagenic call [8]: active; positive

Compound: CSC\C=C(C)/C=C\C=C(C)/C=C\C1=C(C)CCCC1(C)C
- mutagenic call [18]: active; positive

Compound: Cc1ccccc1N=Nc1ccc(N=Nc2c(O)ccc3ccccc23)c(C)c1
- mutagenic call [7]: no conclusion
- mutagenic call [4]: active; positive

Compound: O=Nc1ccc(Nc2ccccc2)cc1
- call [2]: active; positive

Compound: CC(Cl)CCl (configuration not stated)
- mutagenic call [9]: active; positive
